# Target: EivC (His-EivC) (Escherichia coli, UniProt A0A160EFI3)
# Conditions: 30 min assay; His-tagged protein
# Sequence of EivC (His-EivC) (A0A160EFI3 entry or part of it): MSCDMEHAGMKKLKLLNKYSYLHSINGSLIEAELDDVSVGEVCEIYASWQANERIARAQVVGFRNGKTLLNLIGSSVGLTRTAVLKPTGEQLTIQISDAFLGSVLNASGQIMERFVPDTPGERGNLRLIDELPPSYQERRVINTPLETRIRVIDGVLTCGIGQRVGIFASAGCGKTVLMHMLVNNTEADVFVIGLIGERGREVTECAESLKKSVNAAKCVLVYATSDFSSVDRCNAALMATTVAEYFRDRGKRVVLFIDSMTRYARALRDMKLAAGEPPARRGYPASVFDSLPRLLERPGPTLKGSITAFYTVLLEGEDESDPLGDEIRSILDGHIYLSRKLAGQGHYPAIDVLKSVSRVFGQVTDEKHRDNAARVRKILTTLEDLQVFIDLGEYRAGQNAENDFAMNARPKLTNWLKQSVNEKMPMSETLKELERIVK
structure (smiles),measurement,value
Nc1ncnc2c1ncn2[C@@H]1O[C@H](COP(=O)(O)OP(=O)(O)OP(=O)(O)O)[C@@H](O)[C@H]1O [ATP],"phosphate release, malachite green ATPase assay kit",a His-EivC fusion protein was purified and tested for its ability to hydrolyze ATP
